Assay results taken from patent US20260224532A1, “ESTROGEN RECEPTOR BETA LIGANDS FOR THE PREVENTION AND TREATMENT OF MULTIPLE SCLEROSIS (MS) AND OTHER DEMYELINATING, INFLAMMATORY AND NEURODEGENERATIVE DISEASES” (The Board of Trustees of the University of Illinois, priority 2023, published 2026).
“Also recorded” adds a separate entry of the source. Like-named read-outs stand apart in the source and are kept apart here.

Key:
Primary OPCs = experiment: Primary OPC culture: MBP+ OL differentiation and total cell count (DAPI); assay type: cell-based, mouse; conditions: for number of MBP+ OLs with increased percentage of branched OLs, compared to vehicle-treated cells: 10 nM; for MBP expression / number of MBP+ OLs, compared to vehicle-treated cells: 1 nM
Experimental: Primary OPC Cultures: Primary OPCs, isolated from postnatal day P1 C57BL/6 male and female mouse cortices as described previously, are treated with 10 nM ligands in differentiating medium for […] (Tiwari-Woodruff et al., 2001; Tiwari-Woodruff et al., 2006). Primary OPC are cultured into 8-well chamber slides (three wells per condition, 2.5×10^5 cells/well) for three days to attach and five days in differentiating media (consisting of DMEM-F12 with triiodothyronine- and thyroxine-containing Sato as well as penicillin, streptomycin, insulin, N-acetyl-L-cysteine, forskolin, ciliary neurotrophic factor, neurotrophin-3, and platelet-derived growth factor […] (Tiwari-Woodruff et al., 2001)). A positive control (IndC1), a negative control (Vehicle consisting of the media+EtOH mixture used to dissolve IndCl), and a normal control (differentiating media alone) are used for comparison. At the end of the treatment period, cells are fixed, stained by immunocytochemistry (primary antibody polyclonal chicken myelin basic protein (MBP, Millipore AB9348), and co-stained with nuclear stain-DAPI), and imaged with an Olympus BX61 confocal microscope (Olympus America Inc., Center Valley, PA) at 10× magnification (3 images per well). Cells are counted using the ImageJ multipoint tool, and counts are then divided by the image area (mm^2). Average cell density for each condition is then divided by the normal condition cell density. Analysis of OL differentiation consists of counting the number of MBP+ cells and process extensions that are longer than the respective cell-body diameter and tracking the number of highly branched MBP+ cells (with three or more processes) (Monnerie et al., 2017). Statistics are performed using GraphPad Prism 6 Software (La Jolla, CA). One-way ANOVA with Tukey's posthoc test for multiple comparisons is used to generate p-values, and data are presented as mean±SEM (with α≤0.05).
FIG. 1A-1D show the effects of treatment with the 7-substituted indazole compounds on the expression of myelin basic protein in OLs (MBP^+-OLs, top two panels) as an indication of murine oligodendrocyte precursor cell (OPC) differentiation, as well as the count of the total cells as an indication of cell proliferation/survival (DAPI nucleus stain, bottom two panels). The cells were treated with the listed compounds at 10 nM (FIG. 1A, 1B) and at 1 nM (FIG. 1C, 1D).

[1] = target: T1, purified, full length human ERα (Homo sapiens, UniProt P03372); experiment: Relative binding affinity (RBA) radiometric competitive binding assay, ERα; conditions: relative binding affinity, E2 (estradiol) is 100%; tritiated estradiol tracer
T1 construct: purified, full length human ERα and ERβ
T1 sequence (P03372 1-595): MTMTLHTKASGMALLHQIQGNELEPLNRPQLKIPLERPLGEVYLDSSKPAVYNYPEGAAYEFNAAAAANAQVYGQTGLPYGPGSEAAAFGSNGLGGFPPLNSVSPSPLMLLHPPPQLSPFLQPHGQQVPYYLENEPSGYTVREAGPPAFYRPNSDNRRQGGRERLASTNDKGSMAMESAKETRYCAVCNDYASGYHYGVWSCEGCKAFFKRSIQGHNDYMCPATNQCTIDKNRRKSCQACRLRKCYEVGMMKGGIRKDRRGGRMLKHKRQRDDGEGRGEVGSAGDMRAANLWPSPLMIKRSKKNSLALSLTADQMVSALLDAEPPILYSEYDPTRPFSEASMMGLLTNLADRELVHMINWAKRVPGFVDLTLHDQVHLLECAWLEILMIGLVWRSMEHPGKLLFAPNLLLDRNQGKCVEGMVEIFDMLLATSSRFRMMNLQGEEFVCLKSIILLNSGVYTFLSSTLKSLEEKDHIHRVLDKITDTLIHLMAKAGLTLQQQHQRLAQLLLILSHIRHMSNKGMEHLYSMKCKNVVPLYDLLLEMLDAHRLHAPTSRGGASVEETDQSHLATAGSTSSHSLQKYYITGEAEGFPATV

[2] = target: T2, purified, full length human ERβ (Homo sapiens, UniProt Q92731); experiment: Relative binding affinity (RBA) radiometric competitive binding assay, ERβ; conditions: for β/α (ERβ/ERα selectivity): ratio of RBA ERβ to RBA ERα
T2 construct: purified, full length human ERα and ERβ
T2 sequence (Q92731 whole entry): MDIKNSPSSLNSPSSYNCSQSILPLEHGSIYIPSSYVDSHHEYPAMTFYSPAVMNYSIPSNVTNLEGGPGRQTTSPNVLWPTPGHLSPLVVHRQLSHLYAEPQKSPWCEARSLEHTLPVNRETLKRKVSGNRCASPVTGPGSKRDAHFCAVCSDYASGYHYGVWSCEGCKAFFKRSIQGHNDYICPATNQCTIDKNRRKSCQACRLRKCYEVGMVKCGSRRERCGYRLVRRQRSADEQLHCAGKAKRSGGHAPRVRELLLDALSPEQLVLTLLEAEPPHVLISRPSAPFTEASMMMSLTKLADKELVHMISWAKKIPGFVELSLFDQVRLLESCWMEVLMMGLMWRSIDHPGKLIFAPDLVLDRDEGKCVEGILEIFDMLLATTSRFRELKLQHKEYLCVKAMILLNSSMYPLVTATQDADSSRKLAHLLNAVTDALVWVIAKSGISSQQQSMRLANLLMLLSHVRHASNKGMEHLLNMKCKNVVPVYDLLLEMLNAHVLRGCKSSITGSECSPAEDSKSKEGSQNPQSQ

uterus = experiment: Uterotrophic effect (uterine weight) in non-ovariectomized mice of the cuprizone study; assay type: in vivo; conditions: daily SC 5 mg/kg
Source text: The uterus was taken from the mice treated with compounds 5 and 7 from the recovery assessment study using the Cuprizone-induced demyelination model. Uterine weight for each compound is represented by % uterus/body weight.
Estrogens increase uterine weight by acting primarily through ERα (Hewitt and Korach, 2003).

[3] = tested on: Cuprizone-Induced Demyelinated Mouse Model; experiment: Myelin recovery in the cuprizone-induced demyelinated mouse model (MOG IHC, Corpus Callosum); assay type: in vivo, C57BL/6 female mice
Experimental: The Cuprizone assay of demyelination-remyelination was conducted by the methods described previously (Moore et al. 2013; Crawford et al, 2009a,b). A group of animals was on normal diet (N groups). The remainder of the mice were divided into groups of 5 and all of these groups of mice were fed cuprizone diet at (0.2% cuprizone mixed in chow). After 6 weeks on cuprizone diet-induced demyelination, a group of 5 mice were perfused (DM group). The other groups of mice were switched to normal diet for 1.5 weeks to initiate remyelination and were treated with either (i) Vehicle (SC+V) or (ii) test compound at a dose of 5 mg/kg. […] After 1.5 weeks of normal diet-induced remyelination, the mice were perfused. Brains were collected, cryoprotected, embedded, cut, and IHC for myelin oligodendrocyte glycoproteins (MOG) was performed. Cuprizone study results after 1.5-weeks treatment with the designated 7-substituted compounds via SC administration following 6 weeks cuprizone treatment of (C57BL/6) female mice are shown in FIG. 5. The height of each bar graph represents level of myelination assessed by the expression of MOG in the white matter tracks of the Corpus Callosum area quantified by immunohistochemical analysis (IHC) after staining with a MOG antibody. N: Normal diet, DM: Demyelinated status after 6 weeks cuprizone treatment, SC-Veh: Spontaneous remyelination after injection with matrix in saline solution only (without compound; recovery is only about 40%). (Mice: ~2 months age, SC: Subcutaneous injection, n=5). Cuprizone study results for the 3-weeks treatment with the 6-substituted compound 17 via SC administration following the 6 weeks of 0.2% cuprizone treatment of C57BL/6 female mice are shown in FIG. 6. The height of each bar graph represents level of myelination assessed by the expression of MOG in the white matter tracks of the Corpus Callosum area quantified by immunohistochemical analysis (IHC) after staining with a MOG antibody. N: Normal diet, DM: Demyelinated status after 6 weeks cuprizone treatment, SC-Veh: Spontaneous remyelination after injection with matrix in saline solution only (without compound; recovery is only about 40%). (Mice: ~2 months age, SC: Subcutaneous injection, n=5~6). […] (Mice: ~2 months age, s.c.: Subcutaneous administration, n=5).

[4] = 2-hour single-point pharmacokinetic (PK) study, blood and brain; assay type: in vivo, C57BL/6 female mice; conditions: for Kp at 2 h: female, C57BL/6, mouse, brain / blood
Experimental: The 2-Hour single-point pharmacokinetics for IndCl-7-Cl (compound 7), IndCl-7-Br-3′-OH (compound 12), and IndCl-7-Cl-3′-F (compound 14) was examined in (two and half month old C57BL/6 female) mice after single subcutaneous (SC) injection or oral gavage (PO) in 0.1 mL at a dose 5 mg/kg for SC and 25 mg/kg for PO administration. The vehicle for SC administration was 0.1 mL 10% ethanol and 90% Miglyol 812N or 10% DMSO saline and for PO administration, 0.1 mL 2-hydroxypropyl-beta-cyclodextrin [HPCD]/40% aqueous solution MW ~1540. Two hours after injection blood and brain were collected and processed for quantification of the administered compound at the University of Illinois Metabolomics Core Facility by liquid chromatography-mass spectrometry (LC-MS/MS). The bar graphs indicate the analyzed concentration in the blood and the brain in nM units for each sample and each administered method. The brain uptake ratio over the blood of compound 7 (IndCl-7-C1) in the PO and SC pharmacokinetic study is as high as ~7 and ~6, respectively.
For subcutaneous (SC) injection, the compound made up as a homogeneous suspension in 10% ethanol and 90% Miglyol 812N (vehicle; Sasol) and a 0.1 mL dose was administered by SC injection at a dose of 5 mg/kg body weight. For PO administration, the compound was dissolved into 40% (2-Hydroxypropyl)-β-cyclodextrin (Mw~ 1540)(HP-CD) and administered via oral gavage in a volume of 0.1 mL at a dose of 25 mg/kg body weight.

[5] = SC 5 mg/kg, 1.5-weeks treatment after 6 weeks cuprizone

| Structure (SMILES) | number of MBP+ OLs with increased percentage of branched OLs, compared to vehicle-treated cells (Primary OPCs) | RBA ERα [1] | β/α (ERβ/ERα selectivity) [2] | uterotrophic effect, uterine weight (% uterus/body weight) vs vehicle (uterus) | remyelination (MOG expression in Corpus Callosum) [3, 5] | MBP expression / number of MBP+ OLs, compared to vehicle-treated cells (Primary OPCs) | concentration in the brain after PO administration compared with SC injection ([4]; PO 25 mg/kg vs SC 5 mg/kg, 2 hours) | brain uptake (in words) ([4]; PO 25 mg/kg, 2 hours) | brain uptake (in words) ([4]; SC 5 mg/kg, 2 hours) | Kp at 2 h ([4]; PO 25 mg/kg, 2 hours after dosing, read-out: brain uptake ratio over the blood) | Kp at 2 h ([4]; SC 5 mg/kg, 2 hours after dosing, read-out: brain uptake ratio over the blood) | RBA ERβ ([2]; relative binding affinity, E2 (estradiol) is 100%, tritiated estradiol tracer) | Kp at 2 h ([4]; PO 25 mg/kg, 2 hours, n=3, read-out: concentration in brain relative to concentration in blood) | remyelination (MOG expression in Corpus Callosum) ([3]; SC, 3-weeks treatment after 6 weeks of 0.2% cuprizone) |
| --- | --- | --- | --- | --- | --- | --- | --- | --- | --- | --- | --- | --- | --- | --- |
| Oc1ccc(-n2nc3c(Br)cc(O)cc3c2I)cc1 [Compound 5, 7-bromo-2-(4-hydroxyphenyl)-3-iodo-2H-indazol-5-ol] | significant increase | 6.95% | 23 | did not show uterotrophic effects significantly different from mice treated with vehicle alone; also recorded: did not stimulate the uterus weight significantly | somewhat less remyelination | – | – | – | – | – | – | – | – | – |
| Oc1ccc(-n2nc3c(Cl)cc(O)cc3c2Cl)cc1 [Compound 7, 3,7-dichloro-2-(4-hydroxyphenyl)-2H-indazol-5-ol] | significant increase | 6.9 ± 2.4% | 45 | did not show uterotrophic effects significantly different from mice treated with vehicle alone; also recorded: did not stimulate the uterus weight significantly | accelerates remyelination, reaching levels at or above the normal myelin level | particularly significant increase | markedly higher | selective high brain uptake | selective high brain uptake | ~7 | ~6 | – | – | – |
| Oc1ccc(-n2nc3cc(F)c(O)cc3c2Cl)cc1 [Compound 17, 3-chloro-6-fluoro-2-(4-hydroxyphenyl)-2H-indazol-5-ol] | significant increase | 0.968% | 48.7 | – | – | good MBP expression; also recorded: significant increase | – | – | – | – | – | 47.11% | 3 | recover above the normal level; also recorded: accelerate remyelination to reach a level at or above the normal level |
